Where two headings read alike, the source gives them in different places.
How the values were obtained:
Format in all cases: cell-based
HIV-1 HBX2 (wild type) = experiment: High throughput cytopathic effect assay in MT-4 cells, wild type HIV-1
From the text: (§1) Compounds were screened in a miniaturized, high throughput cytopathic effect assay for activity against HIV-1 HBX2 (wild type) and HIV-1 reverse transcriptase mutants K103N and Y181C. In Tables 1 and 2 below. “w.t.” refers to results of the tested compounds run with the wildtype 1 and “w.t, assay 2” refers results of the tested compounds run with the wildtype on the same day as the testing of the compounds with the mutants. Thus, “w.t, assay 2” was run under the same conditions as the testing of the compounds with the mutants and provides a direct comparison with the results from the testing with the mutants.
(§2) Ten-point serial dilutions of compounds with half-log step size were generated in DMSO. AZT ([…]) was used as the positive control and DMSO as the negative control. The Echo acoustic dispenser was used to deliver 200 nL of serially diluted compound into sterile 384 well tissue culture assay plates. Two million MT-4 cells were incubated with each of the 3 viruses at MOI of 0.0005 in separate 1 mL infection tubes for 1 hour at 37° C. The cells were diluted in cell culture medium (RPMI+10% FBS) to 50.000 cells/mL. The infected cells were added to 384 well assay plates containing serially dilute compounds. Assay plates were incubated for 5 days in a humidified incubator set at 37° C. and 5% CO2. To measure the cytopathic effect of HIV, 40 μL Cell TiterGlo was added to each well and the resulting luminescence signal is read with the Envision plate reader (Perkin Elmer). Data were normalized to positive and negative controls in each plate and expressed as % CPE Protection. EC50 values were defined as the compound concentration that caused a 50% decrease in luminescence signal, and were calculated by non-linear regression using Pipeline Pilot software by applying a four parameter fit equation (Accelrys, San Diego, Calif.).

[1] = tested on: HIV-1 reverse transcriptase mutant Y181C; experiment: High throughput cytopathic effect assay in MT-4 cells, Y181C mutant; details: for EC50: Human immunodeficiency virus 1, MT4, 120 h, read-out: MT4 EC50 (nM) against Y181C; for FC against mutant Y181C: fold change of MT4 EC50 versus w.t. assay 2
From the text: as §1, §2

[2] = tested on: HIV-1 reverse transcriptase mutant K103N; experiment: High throughput cytopathic effect assay in MT-4 cells, K103N mutant; details: for EC50: Human immunodeficiency virus 1, MT4, 120 h, read-out: MT4 EC50 (nM) against K103N; for FC against mutant K103N: fold change of MT4 EC50 versus w.t. assay 2
From the text: as §1, §2

[3] = Human immunodeficiency virus 1, MT4, 120 h, MT-4 cells, 5 days, cytopathic effect, Cell TiterGlo, read-out: MT4 EC50 (nM) against w.t.
[4] = Human immunodeficiency virus 1, MT4, read-out: MT4 EC50 (nM) against w.t. assay 2

## Cc1cc(/C=C/C#N)cc(C)c1-c1cccc2c(N)nc(Nc3ccc(C#N)c(C)n3)nc12 [Compound 16, (E)-6-((4-Amino-8-(4-(2-cyanovinyl)-2,6-dimethylphenyl)quinazolin-2-yl)amino)-2-methylnicotinonitrile]
HIV-1 HBX2 (wild type); [3]
  EC50: 6.3 nM
HIV-1 HBX2 (wild type); [4]
  EC50: 7.5 nM
[1]
  EC50: 42.6 nM
  FC against mutant Y181C: 5.7
[2]
  EC50: 12.5 nM
  FC against mutant K103N: 1.7

## COc1cc(/C=C/C#N)cc(OC)c1-c1cccc2cnc(Nc3ccc(C#N)cc3)nc12 [Compound 33, (E)-44-((8-(4-(2-Cyanovinyl)-2,6-dimethoxyphenyl)quinazolin-2-yl)amino)benzonitrile]
HIV-1 HBX2 (wild type); [3]
  EC50: 2.1 nM
HIV-1 HBX2 (wild type); [4]
  EC50: 1.5 nM
[1]
  EC50: 12.3 nM
  FC against mutant Y181C: 7.9
[2]
  EC50: 3.2 nM
  FC against mutant K103N: 2.1

## COc1cc(-c2c(C)cc(/C=C/C#N)cc2C)c2nc(Nc3ccc(C#N)cn3)nc(N)c2c1 [Compound 24, (E)-6-((4-Amino-8-(4-(2-cyanovinyl)-2,6-dimethylphenyl)-6-methoxyquinazolin-2-yl)amino)nicotinonitrile]
HIV-1 HBX2 (wild type); Human immunodeficiency virus 1, MT4, 120 h, read-out: MT4 EC50 (nM) against w.t.
  EC50: 27.8 nM
HIV-1 HBX2 (wild type); [4]
  EC50: 27.8 nM
[1]
  EC50: 478 nM
  FC against mutant Y181C: 17.2
[2]
  EC50: 32.5 nM
  FC against mutant K103N: 1.2

## CCc1cc(/C=C/C#N)cc(CC)c1-c1cccc2c(N)nc(Nc3ccc(C#N)cn3)nc12 [Compound 36, (E)-6-((4-Amino-8-(4-(2-cyanovinyl)-2,6-diethylphenyl)quinazolin-2-yl)amino)nicotinonitrile]
HIV-1 HBX2 (wild type); [3]
  EC50: 7.7 nM
HIV-1 HBX2 (wild type); [4]
  EC50: 10.5 nM
[1]
  EC50: 87.3 nM
  FC against mutant Y181C: 8.3
[2]
  EC50: 10.1 nM
  FC against mutant K103N: 1.0

## Cc1cc(-c2c(C)cc(/C=C/C#N)cc2C)c2nc(Nc3ccc(C#N)cn3)nc(N)c2c1 [Compound 21, (E)-6-((4-Amino-8-(4-(2-cyanovinyl)-2,6-dimethylphenyl)-6-methylquinazolin-2-yl)amino)nicotinonitrile]
HIV-1 HBX2 (wild type); [3]
  EC50: 10.1 nM
HIV-1 HBX2 (wild type); [4]
  EC50: 10.6 nM
[1]
  EC50: 187 nM
  FC against mutant Y181C: 17.6
[2]
  EC50: 10.8 nM
  FC against mutant K103N: 1.0

## COc1ccc(-c2c(C)cc(/C=C/C#N)cc2C)c2nc(Nc3ccc(C#N)cn3)nc(N)c12 [Compound 29, (E)-6-((4-Amino-8-(4-(2-cyanovinyl)-2,6-dimethylphenyl)-5-methoxyquinazolin-2-yl)amino)nicotinonitrile]
HIV-1 HBX2 (wild type); [3]
  EC50: 22.1 nM
HIV-1 HBX2 (wild type); [4]
  EC50: 18.6 nM
[1]
  EC50: > 500 nM
  FC against mutant Y181C: >26.9
[2]
  EC50: 33.4 nM
  FC against mutant K103N: 1.8

## Cc1cc(/C=C/C#N)cc(C)c1-c1cc([N+](=O)[O-])cc2c(N)nc(Nc3ccc(C#N)cn3)nc12 [Compound 22, (E)-6-((4-Amino-8-(4-(2-cyanovinyl)-2,6-dimethylphenyl)-6-nitroquinazolin-2-yl)amino)nicotinonitrile]
HIV-1 HBX2 (wild type); [3]
  EC50: 69.3 nM
HIV-1 HBX2 (wild type); [4]
  EC50: 87.5 nM
[1]
  EC50: > 500 nM
  FC against mutant Y181C: >5.7
[2]
  EC50: 101 nM
  FC against mutant K103N: 1.2

## Cc1cc(/C=C/C#N)cc(C)c1-c1cccc2c(=O)[nH]c(Nc3ccc(C#N)cc3)nc12 [Compound 41, (E)-4-((8-(4-(2-Cyanovinyl)-2,6-dimethylphenyl)-4-oxo-3,4-dihydroquinazolin-2-yl)amino)benzonitrile]
HIV-1 HBX2 (wild type); [3]
  EC50: 6.3 nM
HIV-1 HBX2 (wild type); [4]
  EC50: 9.5 nM
[1]
  EC50: 32.8 nM
  FC against mutant Y181C: 3.4
[2]
  EC50: 15.7 nM
  FC against mutant K103N: 1.6

## C/C(=C/C#N)c1cc(C)c(-c2cccc3c(N)nc(Nc4ccc(C#N)cc4)nc23)c(C)c1 [Compound 39, (Z)-4-((4-Amino-8-(4-(1-cyanoprop-1-en-2-yl)-2,6-dimethylphenyl)quinazolin-2-yl)amino)benzonitrile]
HIV-1 HBX2 (wild type); [3]
  EC50: 5.9 nM
HIV-1 HBX2 (wild type); [4]
  EC50: 8.9 nM
[1]
  EC50: 27.2 nM
  FC against mutant Y181C: 3.0
[2]
  EC50: 12.1 nM
  FC against mutant K103N: 1.4

## Cc1cc(Nc2nc(N)c3cccc(-c4c(C)cc(/C=C/C#N)cc4C)c3n2)nc(C)c1C#N [Compound 15, (E)-6-((4-Amino-8-(4-(2-cyanovinyl)-2,6-dimethylphenyl)quinazolin-2-yl)amino)-2,4-dimethylnicotinonitrile]
HIV-1 HBX2 (wild type); [3]
  EC50: 22.6 nM
HIV-1 HBX2 (wild type); [4]
  EC50: 33.2 nM
[1]
  EC50: 180 nM
  FC against mutant Y181C: 5.4
[2]
  EC50: 72.2 nM
  FC against mutant K103N: 2.2

## Cc1cc(/C=C/C#N)cc(C)c1-c1cc(Cl)cc2c(N)nc(Nc3ccc(C#N)cc3)nc12 [Compound 19, (E)-4-((4-Amino-6-chloro-8-(4-(2-cyanovinyl)-2,6-dimethylphenyl)quinazolin-2-yl)amino)benzonitrile]
HIV-1 HBX2 (wild type); [3]
  EC50: 27.5 nM
HIV-1 HBX2 (wild type); [4]
  EC50: 29 nM
[1]
  EC50: 79.7 nM
  FC against mutant Y181C: 2.7
[2]
  EC50: 30.3 nM
  FC against mutant K103N: 1.0

## CC(C#N)=Cc1cc(C)c(-c2cccc3c(N)nc(Nc4ccc(C#N)cc4)nc23)c(C)c1 (racemic) [Compound 40, 4-((4-Amino-8-(4-(2-cyanoprop-1-en-1-yl)-2,6-dimethylphenyl)quinazolin-2-yl)amino)benzonitrile]
HIV-1 HBX2 (wild type); [3]
  EC50: 6.8 nM
HIV-1 HBX2 (wild type); [4]
  EC50: 9.9 nM
[1]
  EC50: 36.1 nM
  FC against mutant Y181C: 3.7
[2]
  EC50: 16.3 nM
  FC against mutant K103N: 1.7

## Cc1cc(/C=C/C#N)cc(C)c1-c1cc(Br)cc2c(N)nc(Nc3ccc(C#N)cc3)nc12 [Compound 25, (E)-4-((4-Amino-6-bromo-8-(4-(2-cyanovinyl)-2,6-dimethylphenyl)quinazolin-2-yl)amino)benzonitrile]
HIV-1 HBX2 (wild type); [3]
  EC50: 39.1 nM
HIV-1 HBX2 (wild type); [4]
  EC50: 28.3 nM
[1]
  EC50: 160 nM
  FC against mutant Y181C: 5.6
[2]
  EC50: 44.1 nM
  FC against mutant K103N: 1.6

## CNc1nc(Nc2ccc(C#N)cc2)nc2c(-c3c(C)cc(/C=C/C#N)cc3C)cccc12 [Compound 30, (E)-4-((8-(4-(2-Cyanovinyl)-2,6-dimethylphenyl)-4-(methylamino)quinazolin-2-yl)amino)benzonitrile]
HIV-1 HBX2 (wild type); [3]
  EC50: 15.9 nM
HIV-1 HBX2 (wild type); [4]
  EC50: 13 nM
[1]
  EC50: 55.6 nM
  FC against mutant Y181C: 4.3
[2]
  EC50: 17 nM
  FC against mutant K103N: 1.3

## Cc1cc(/C=C/C#N)cc(C)c1-c1cc(N)cc2c(N)nc(Nc3ccc(C#N)cn3)nc12 [Compound 23, (E)-6-((4,6-Diamino-8-(4-(2-cyanovinyl)-2,6-dimethylphenyl)quinazolin-2-yl)amino)nicotinonitrile]
HIV-1 HBX2 (wild type); [3]
  EC50: 8.7 nM

## Cc1cc(/C=C/C#N)cc(C)c1-c1cc(F)cc2c(N)nc(Nc3ccc(C#N)cn3)nc12 [Compound 20, (E)-6-((4-Amino-8-(4-(2-cyanovinyl)-2,6-dimethylphenyl)-6-fluoroquinazolin-2-yl)amino)nicotinonitrile]
HIV-1 HBX2 (wild type); [3]
  EC50: 7 nM
HIV-1 HBX2 (wild type); [4]
  EC50: 6.6 nM
[1]
  EC50: 69.9 nM
  FC against mutant Y181C: 10.5
[2]
  EC50: 7.1 nM
  FC against mutant K103N: 1.1

## Cc1cc(/C=C/C#N)cc(C)c1-c1cc(F)cc2c(N)nc(Nc3cnc(C#N)cn3)nc12 [Compound 26, (E)-5-((4-Amino-8-(4-(2-cyanovinyl)-2,6-dimethylphenyl)-6-fluoroquinazolin-2-yl)amino)pyrazine-2-carbonitrile]
HIV-1 HBX2 (wild type); [3]
  EC50: 2.7 nM
HIV-1 HBX2 (wild type); [4]
  EC50: 2 nM
[1]
  EC50: 27.2 nM
  FC against mutant Y181C: 13.5
[2]
  EC50: 2.4 nM
  FC against mutant K103N: 1.2

## C/C(=C\C#N)c1cc(C)c(-c2cccc3c(N)nc(Nc4ccc(C#N)cc4)nc23)c(C)c1 [Compound 38, (E)-4-((4-Amino-8-(4-(1-cyanoprop-1-en-2-yl)-2,6-dimethylphenyl)quinazolin-2-yl)amino)benzonitrile]
HIV-1 HBX2 (wild type); [3]
  EC50: 6 nM
HIV-1 HBX2 (wild type); [4]
  EC50: 7.9 nM
[1]
  EC50: 18.6 nM
  FC against mutant Y181C: 2.4
[2]
  EC50: 7 nM
  FC against mutant K103N: 0.9

## CCCCNc1nc(Nc2ccc(C#N)cc2)nc2c(-c3c(C)cc(/C=C/C#N)cc3C)cccc12 [Compound 7, (E)-4-((4-(Butylamino)-8-(4-(2-cyanovinyl)-2,6-dimethylphenyl)quinazolin-2-yl)amino)benzonitrile]
HIV-1 HBX2 (wild type); [3]
  EC50: 122 nM
HIV-1 HBX2 (wild type); [4]
  EC50: 117 nM
[1]
  EC50: > 500 nM
  FC against mutant Y181C: >4.3
[2]
  EC50: 130 nM
  FC against mutant K103N: 1.1

## Cc1cc(/C=C/C#N)cc(C)c1-c1cccc2c(NC(N)=O)nc(Nc3ccc(C#N)cc3)nc12 [Compound 37, (E)-1-(2-((4-Cyanophenyl)amino)-8-(4-(2-cyanovinyl)-2,6-dimethylphenyl)quinazolin-4-yl)urea]
HIV-1 HBX2 (wild type); [3]
  EC50: 4.7 nM
HIV-1 HBX2 (wild type); [4]
  EC50: 6.8 nM
[1]
  EC50: 22.1 nM
  FC against mutant Y181C: 3.3
[2]
  EC50: 7.8 nM
  FC against mutant K103N: 1.2

— patent US10548898B2, “Quinazoline compounds” (Gilead Sciences, Inc., priority 2014, dated 2020)
